Common to all, as to assay type: functional, cell-based
One experiment has as its system MDA-MB-231. Briefly: Cytotoxicity against human MDA-MB-231 cells after 48 hrs by MTT assay. The note with it: MDA-MB-231, 48 h. A general note: Tetrazolium dyes change colour on reduction, which living cells bring about.
The next experiment has as its system A549. Briefly: Cytotoxicity against human A549 cells after 48 hrs by MTT assay. The settings on record: A549, 48 h.
A further experiment concerns DU-145. Briefly: Cytotoxicity against human DU145 cells after 48 hrs by MTT assay. The settings on record: DU-145, 48 h.

Consider 35 molecules from ChEMBL document CHEMBL3399961, “Sulfamic acid promoted one-pot three-component synthesis and cytotoxic evaluation of spirooxindoles” (Bioorg Med Chem Lett, 2015).

pIC50: −log10 of the molar value.

Take `O=C1OCC2=C1C1(C(=O)Nc3ccc([N+](=O)[O-])cc31)c1c(-c3ccccc3)n[nH]c1N2` (stereo not given): the pIC50 (usually the negative decadic logarithm of the IC50, by convention in mol/L) in the experiment with MDA-MB-231 was 4.30; in the experiment with A549, 4.29; in the experiment with DU-145, 4.41.

As to `COc1ccc2c(c1)C1(C(=O)N2)C2=C(COC2=O)Nc2[nH]nc(-c3ccccc3)c21` (stereo not given), the pIC50 in the experiment on MDA-MB-231 is 4.26; in the experiment with A549 it was 4.30; in the experiment with DU-145, 4.36.

`O=C1OCC2=C1C1(C(=O)N(Cc3ccc4c(c3)OCO4)c3ccc(Br)cc31)c1c(-c3ccccc3)n[nH]c1N2` (stereo not given): the pIC50 with MDA-MB-231 was 5.72; in the experiment with A549, 4.20; in the experiment on DU-145 it was 4.87.

In the case of `O=C1OCC2=C1C1(C(=O)N(Cc3ccccc3)c3ccc(Br)cc31)c1c(-c3ccccc3)n[nH]c1N2` (stereo not given), the pIC50 was 4.90 with MDA-MB-231, 4.80 with A549 and 5.07 with DU-145.

Regarding `O=C1OCC2=C1C1(C(=O)Nc3ccccc31)c1c(-c3ccccc3)n[nH]c1N2` (stereo not given), the values for the pIC50 in the experiment with MDA-MB-231, in the experiment with A549 and with DU-145 were 4.31, 4.87 and 4.60, respectively.

On to `O=C1OCC2=C1C1(C(=O)Nc3ccc(Br)cc31)c1c(-c3ccccc3)n[nH]c1N2` (stereo not given), for which the pIC50 in the experiment with MDA-MB-231 is 4.60; with A549, 4.50; in the experiment with DU-145 it was 4.69.

For `O=C1N(Cc2ccc3c(c2)OCO3)c2ccc(Br)cc2C12c1c(-c3ccccc3)n[nH]c1Nc1[nH]c(=O)[nH]c(=O)c12` (stereo not given), the pIC50 in the experiment on MDA-MB-231 was 4.87; in the experiment on A549, 4.83; in the experiment on DU-145, 4.78.

Take `O=C1OCC2=C1C1(C(=O)N(Cc3ccccc3)c3ccc(Cl)cc31)c1c(-c3ccccc3)n[nH]c1N2` (stereo not given): the results for the pIC50 in the experiment with MDA-MB-231, with A549 and in the experiment on DU-145 were 5.41, 4.30 and 4.45, respectively.

On to `O=C1OCC2=C1C1(C(=O)N(Cc3ccccc3)c3ccccc31)c1c(-c3ccccc3)n[nH]c1N2` (stereo not given), for which the pIC50 in the experiment with MDA-MB-231 was 4.50; with A549, 4.45; with DU-145, 4.80.

Regarding `O=C1N(Cc2ccc3c(c2)OCO3)c2ccc(Cl)cc2C12c1c(-c3ccccc3)n[nH]c1Nc1[nH]c(=O)[nH]c(=O)c12` (stereo not given), the pIC50 in the experiment on MDA-MB-231 was 4.80; in the experiment on A549, 4.58; in the experiment on DU-145, 4.61.

As to `O=C1OCC2=C1C1(C(=O)Nc3ccc(I)cc31)c1c(-c3ccccc3)n[nH]c1N2` (stereo not given), the pIC50 was 4.70 with MDA-MB-231, 4.48 in the experiment with A549 and 4.66 in the experiment on DU-145.

`O=C1Nc2ccccc2C12c1c(-c3ccccc3)n[nH]c1Nc1[nH]c(=O)[nH]c(=O)c12` (stereo not given): the pIC50 in the experiment with MDA-MB-231 is 4.45; with A549, 4.75; with DU-145, 4.74.

Turning to `O=C1Nc2ccc(I)cc2C12c1c(-c3ccccc3)n[nH]c1Nc1[nH]c(=O)[nH]c(=O)c12` (stereo not given), the pIC50 with MDA-MB-231 was 4.34; in the experiment with A549, 4.90; in the experiment on DU-145 it was 4.98.

With `O=C1Nc2ccc(F)cc2C12c1c(-c3ccccc3)n[nH]c1Nc1[nH]c(=O)[nH]c(=O)c12` (stereo not given), the pIC50 was 4.12 in the experiment with MDA-MB-231, 4.60 in the experiment with A549 and 4.37 in the experiment with DU-145.

For the molecule `Cc1ccc2c(c1)C1(C(=O)N2)C2=C(COC2=O)Nc2[nH]nc(-c3ccccc3)c21` (stereo not given), the pIC50 was 4.21 in the experiment with MDA-MB-231, 4.80 with A549 and 4.89 in the experiment with DU-145.

On to `O=C1OCC2=C1C1(C(=O)N(Cc3ccc4c(c3)OCO4)c3ccccc31)c1c(-c3ccccc3)n[nH]c1N2` (stereo not given), for which the pIC50 was 4.99 in the experiment on MDA-MB-231, 4.38 in the experiment on A549 and 4.93 in the experiment on DU-145.

On to `COc1ccc2c(c1)C1(C(=O)N2)c2c(-c3ccccc3)n[nH]c2Nc2[nH]c(=O)[nH]c(=O)c21` (stereo not given), for which the pIC50 in the experiment on MDA-MB-231 is 4.54; in the experiment with A549, 4.62; in the experiment with DU-145, 4.64.

On to `O=C1OCC2=C1C1(C(=O)Nc3ccc(F)cc31)c1c(-c3ccccc3)n[nH]c1N2` (stereo not given), for which the figures for the pIC50 in the experiment on MDA-MB-231, in the experiment with A549 and in the experiment on DU-145 were 4.46, 4.60 and 4.54, respectively.

For `COc1ccc2c(c1)C1(C(=O)N2Cc2ccccc2)c2c(-c3ccccc3)n[nH]c2Nc2[nH]c(=O)[nH]c(=O)c21` (stereo not given), the figures for the pIC50 in the experiment on MDA-MB-231, in the experiment with A549 and in the experiment with DU-145 were 4.84, 4.77 and 4.66, respectively.

Turning to `O=C1OCC2=C1C1(C(=O)N(Cc3ccc4c(c3)OCO4)c3ccc(Cl)cc31)c1c(-c3ccccc3)n[nH]c1N2` (stereo not given), the pIC50 in the experiment with MDA-MB-231 is 6.46; in the experiment with A549 it was 4.70; with DU-145, 4.82.

With `O=C1OCC2=C1C1(C(=O)Nc3ccc(Cl)cc31)c1c(-c3ccccc3)n[nH]c1N2` (stereo not given), the pIC50 with MDA-MB-231 was 4.26; in the experiment with A549 it was 4.30; with DU-145 it was 4.38.

On to `COc1cc(CN2C(=O)C3(C4=C(COC4=O)Nc4[nH]nc(-c5ccccc5)c43)c3cc(Cl)ccc32)cc(OC)c1OC` (stereo not given), for which the pIC50 is 4.71 in the experiment with MDA-MB-231, 4.70 in the experiment with A549 and 4.69 with DU-145.

`O=C1N(Cc2ccccc2)c2ccc(Br)cc2C12c1c(-c3ccccc3)n[nH]c1Nc1[nH]c(=O)[nH]c(=O)c12` (stereo not given): the figures for the pIC50 with MDA-MB-231, in the experiment on A549 and with DU-145 were 5.20, 4.59 and 4.63, respectively.

For `COc1ccc2c(c1)C1(C(=O)N2Cc2ccccc2)C2=C(COC2=O)Nc2[nH]nc(-c3ccccc3)c21` (stereo not given), the pIC50 with MDA-MB-231 is 5.29; with A549, 4.84; with DU-145 it was 4.82.

Turning to `O=C1Nc2c(F)cccc2C12c1c(-c3ccccc3)n[nH]c1Nc1[nH]c(=O)[nH]c(=O)c12` (stereo not given), the pIC50 with MDA-MB-231 is 4.17; in the experiment on A549, 4.74; in the experiment on DU-145, 4.69.

As to `COc1cc(CN2C(=O)C3(c4cc(Cl)ccc42)c2c(-c4ccccc4)n[nH]c2Nc2[nH]c(=O)[nH]c(=O)c23)cc(OC)c1OC` (stereo not given), the figures for the pIC50 in the experiment with MDA-MB-231, in the experiment with A549 and in the experiment with DU-145 were 4.40, 4.50 and 4.49, respectively.

Regarding `O=C1OCC2=C1C1(C(=O)Nc3c(F)cccc31)c1c(-c3ccccc3)n[nH]c1N2` (stereo not given), the figures for the pIC50 in the experiment with MDA-MB-231, with A549 and in the experiment with DU-145 were 4.28, 4.43 and 4.43, respectively.

As for `O=C1N(Cc2ccc3c(c2)OCO3)c2ccccc2C12c1c(-c3ccccc3)n[nH]c1Nc1[nH]c(=O)[nH]c(=O)c12` (stereo not given), the pIC50 is 4.70 with MDA-MB-231, 4.76 in the experiment with A549 and 4.71 with DU-145.

Turning to `O=C1Nc2ccc([N+](=O)[O-])cc2C12c1c(-c3ccccc3)n[nH]c1Nc1[nH]c(=O)[nH]c(=O)c12` (stereo not given), the pIC50 was 4.20 with MDA-MB-231, 5.11 in the experiment with A549 and 5.02 in the experiment on DU-145.

As to `Cc1ccc2c(c1)C1(C(=O)N2)c2c(-c3ccccc3)n[nH]c2Nc2[nH]c(=O)[nH]c(=O)c21` (stereo not given), the pIC50 is 4.20 with MDA-MB-231, 5.11 with A549 and 5.02 in the experiment with DU-145.

As for `O=c1[nH]cc(F)c(=O)[nH]1` [FLUOROURACIL], the values for the pIC50 in the experiment on MDA-MB-231, with A549 and in the experiment on DU-145 were 5.24, 5.12 and 5.20, respectively.

For `O=C1Nc2ccc(Cl)cc2C12c1c(-c3ccccc3)n[nH]c1Nc1[nH]c(=O)[nH]c(=O)c12` (stereo not given), the negative logarithm of the IC50 (pIC50) in the experiment with MDA-MB-231 is 4.17; in the experiment on A549 it was 5.10; in the experiment on DU-145, 4.80.

Consider `O=C1N(Cc2ccccc2)c2ccc(Cl)cc2C12c1c(-c3ccccc3)n[nH]c1Nc1[nH]c(=O)[nH]c(=O)c12` (stereo not given), for which the pIC50 in the experiment on MDA-MB-231 was 4.90; in the experiment with A549, 4.70; in the experiment on DU-145 it was 4.69.

For the molecule `O=C1Nc2ccc(Br)cc2C12c1c(-c3ccccc3)n[nH]c1Nc1[nH]c(=O)[nH]c(=O)c12` (stereo not given), the pIC50 is 4.32 with MDA-MB-231, 4.67 in the experiment on A549 and 4.52 in the experiment on DU-145.

Consider `O=C1N(Cc2ccccc2)c2ccccc2C12c1c(-c3ccccc3)n[nH]c1Nc1[nH]c(=O)[nH]c(=O)c12` (stereo not given), for which the results for the pIC50 in the experiment on MDA-MB-231, in the experiment with A549 and with DU-145 were 4.88, 4.44 and 4.74, respectively.
